Data reported in patent publication US8815796B2, “Polyheterocyclic compounds highly potent as HCV inhibitors” (AB Pharma Ltd., priority 2010, dated 2014).
pIC50: −log10 of the molar value. Like-named read-outs stand apart in the source and are kept apart here.

Target: T1, HCV NS3-4A protease (Hepatitis C virus genotype 1a, UniProt P27958)
T1 construct: HCV NS3-4A protease
Assay: HCV NS3-4A protease assay in vitro (FRET-S substrate)
Type: biochemical
Method: HCV NS3-4A Protease Assay In Vitro.
The assay was conducted in Buffer A containing 30 mM NaCl, 5 mM CaCl2, 10 mM DTT, 50 mM Tris (pH7.8), using the Ac-Asp-Glu-Asp(EDANS)-Glu-Glu-Abu-ψ-[COO]-Ala-Ser-Lys (DABCYL)-NH2 (FRET-S) fluorescent peptide (AnaSpec, USA) as substrate. Briefly, 140 μL buffer A, 20 μL compounds dissolved in buffer A with different concentration and 20 μL HCV NS3-4A protease diluted in buffer A were added into 96-well plate respectively and mixed well. The reaction was initiate with adding 20 μL of FRET-S. Reactions were continuously monitored at 37° C. using a BMG Polarstar Galaxy (MTX Lab Systems, Inc. USA), with excitation and emission filters of 355 nm and 520 nm, respectively. The 50% inhibitory concentration (IC50) was calculated with Reed & Muench methods.

[1] = HCV NS3-4A protease inhibition, 37° C., class symbols, read-out: NS3-NS4A IC50

T1 sequence (P27958 1027-1657): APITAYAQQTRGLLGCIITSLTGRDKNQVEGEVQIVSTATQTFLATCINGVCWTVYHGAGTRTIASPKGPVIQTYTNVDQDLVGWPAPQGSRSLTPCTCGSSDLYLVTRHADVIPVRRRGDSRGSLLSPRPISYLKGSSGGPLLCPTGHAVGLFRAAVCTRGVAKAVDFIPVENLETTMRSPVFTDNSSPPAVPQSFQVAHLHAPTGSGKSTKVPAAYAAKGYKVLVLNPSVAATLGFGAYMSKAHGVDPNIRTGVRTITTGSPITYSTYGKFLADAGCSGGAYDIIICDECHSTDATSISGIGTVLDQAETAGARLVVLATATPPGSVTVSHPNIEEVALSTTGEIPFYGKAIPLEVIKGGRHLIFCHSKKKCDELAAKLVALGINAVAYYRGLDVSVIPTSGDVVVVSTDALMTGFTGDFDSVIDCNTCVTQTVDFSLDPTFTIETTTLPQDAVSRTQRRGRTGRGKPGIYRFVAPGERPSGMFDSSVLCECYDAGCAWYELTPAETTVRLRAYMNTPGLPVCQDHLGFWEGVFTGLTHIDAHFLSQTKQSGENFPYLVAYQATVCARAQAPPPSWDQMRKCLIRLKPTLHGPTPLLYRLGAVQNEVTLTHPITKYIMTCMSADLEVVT
T1 sequence (P27958 1658-1711): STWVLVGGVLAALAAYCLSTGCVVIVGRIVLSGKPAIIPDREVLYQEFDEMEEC

Row | SMILES | pIC50 [1] | pIC50
1 | CC[C@H]1C[C@@]1(NC(=O)C1C[C@@H](OC(=O)N2Cc3cc4c(cc3C2)OCO4)CN1C(=O)[C@@H](NC(=O)[C@@H](NS(C)(=O)=O)C1CCCCC1)C(C)(C)C)C(=O)NS(=O)(=O)C1CC1 (some centres unmarked) [Compound 30n] | > 7.52 | –
2 | CC[C@H]1C[C@@]1(NC(=O)C1C[C@@H](OC(=O)N2Cc3cc4c(cc3C2)OCO4)CN1C(=O)[C@@H](NC(=O)[C@@H](NC(=O)OC(C)C)C1CCCCC1)C(C)(C)C)C(=O)NS(=O)(=O)C1CC1 (some centres unmarked) [Compound 30w] | – | > 7.52
3 | O=C1N[C@]2(C(=O)NS(=O)(=O)C3CC3)C[C@H]2/C=C\CCCCN(C2CC2)C(=O)C2C[C@H](OC(=O)N3Cc4ccc5c(c4C3)OCO5)C[C@@H]12 (some centres unmarked) [Compound 21f] | 6.70 to 7.52 | –
4 | CC[C@H]1C[C@@]1(NC(=O)C1C[C@@H](OC(=O)N2Cc3cc4c(cc3C2)OCCCO4)CN1C(=O)[C@@H](NC(=O)[C@@H](NC(=O)c1cnccn1)C1CCCCC1)C(C)(C)C)C(=O)NS(=O)(=O)C1CC1 (some centres unmarked) [Compound 30h] | – | > 7.52
5 | CC(C)(C)OC(=O)N[C@H]1CCCCC/C=C\[C@@H]2C[C@@]2(C(=O)O)NC(=O)[C@@H]2C[C@@H](OC(=O)N3Cc4ccc5c(c4C3)OCO5)CN2C1=O [Compound 11a] | < 6.70 | –
6 | C=C[C@H]1C[C@@]1(NC(=O)C1C[C@@H](OC(=O)N2Cc3cccc(F)c3C2)CN1C(=O)[C@@H](NC(=O)OC1CCCC1)C(C)(C)C)C(=O)NS(=O)(=O)C1CC1 (some centres unmarked) [Compound 30aq] | > 7.52 | –
7 | CCC[C@H](NC(=O)C1C[C@@H](OC(=O)N2Cc3ccc4c(c3C2)OCO4)CN1C(=O)[C@@H](NC(=O)[C@@H](NC(=O)c1cnccn1)C1CCCCC1)C(C)(C)C)C(=O)C(=O)NC1CC1 (some centres unmarked) [Compound 33c] | – | 6.70 to 7.52
8 | O=C1N[C@]2(C(=O)NS(=O)(=O)C3CC3)C[C@H]2/C=C\CCCCCN(C2CC2)C(=O)C2C[C@H](OC(=O)N3Cc4ccc5c(c4C3)OCO5)C[C@@H]12 (some centres unmarked) [Compound 21d] | 6.70 to 7.52 | –
